Reference: US6218393A, “Anthranilic acid derivatives as multi drug resistance modulators” (priority 1997, dated 2001)

Tested on: AR 1.0 cells
Experiment: Drug accumulation assay: daunorubicin accumulation in AR 1.0 cells
Format: cell-based
Conditions: Mus musculus, 100% = accumulation with verapamil 100 μM, 1 hr, 37° C.
Description: The EMT6 mouse mammary carcinoma cell line and the MDR resistant subline AR 1.0 were cultured in RPMI 1640 medium containing 10% foetal calf serum and 2 mM glutamine at 37° C. in 5% CO2. Cells were passaged between 1 in 200 and 1 in 2000 in the case of the parental cell line and between 1 in 20 and 1 in 200 in the case of the MDR resistant subline, after trypsinisation (0.25% trypsin, 0.2 gl^-1, EDTA).
AR 1.0 cells were seeded 48 hours prior to assay into 96 well opaque culture plates (Canberra Packard).

SMILES | IC50
COc1ccc(C(=O)Nc2ccccc2C(=O)Nc2ccc(CCN3CCc4cc(OC)c(OC)cc4C3)cc2)cn1 [compound 9582, N-(2-{4-[2-(6,7-Dimethoxy-3,4-dihydro-1H-isoquinolin-2-yl)-ethyl]-phenylcarbamoyl}-phenyl)-6-methoxy-nicotinamide] | 1270 nM
O=C(Nc1ccccc1C(=O)Nc1ccc(CCN2CCc3ccc([N+](=O)[O-])cc3C2)cc1)c1cnc2ccccc2c1 [compound 9634, Quinoline-3-carboxylic acid (2-{4-[2-(7-nitro-3,4-dihydro-1H-isoquinolin-2-yl)-ethyl]-phenylcarbamoyl}-phenyl)-amide] | 6960 nM
COc1cc2c(cc1OC)CN(CCc1ccc(NC(=O)c3ccccc3NC(=O)c3ccc(O)cc3)cc1)CC2 [compound 9559, 2-(4-Hydroxy-benzoylamino)-N-{4-[2-(6,7-dimethoxy-3,4-dihydro-1H-isoquinolin-2-yl)-ethyl]-phenyl}-benzamide] | 2060 nM
COc1cc2c(cc1OC)CN(CCNC(=O)c1ccccc1NC(=O)c1cccnc1)CC2 [compound 9359, N-{2-[2-(6,7-Dimethoxy-3,4-dihydro-1H-isoquinolin-2-yl)-ethylcarbamoyl]-phenyl}-nicotinamide] | > 10000 nM
COc1cc2c(cc1OC)CN(CCNC(=O)c1ccccc1NC(=O)c1ccc3c(c1)OCO3)CC2 [compound 9302, Benzo[1,3]dioxole-5-carboxylic acid {2-[2-(6,7-dimethoxy-3,4-dihydro-1H-isoquinolin-2-yl)-ethylcarbamoyl]-phenyl}-amide] | 5000 nM
COc1cc2c(cc1OC)CN(CCc1ccc(NC(=O)c3sc4nccnc4c3NC(=O)c3cnc4ccccc4c3)cc1)CC2 [compound 9666, Quinoline-3-carboxylic acid (6-{4-[2-(6,7-dimethoxy-3,4-dihydro-1H-isoquinolin-2-yl)-ethyl]-phenylcarbamoyl}-thieno[2,3-b]pyrazin-7-yl)-amide] | 8670 nM
O=C(Nc1ccccc1C(=O)Nc1ccc(CCN2CCc3cc(Cl)c(Cl)cc3C2)cc1)c1cnc2ccccc2c1 [compound 9628, Quinoline-3-carboxylic acid (2-{4-[2-(6,7-dichloro-3,4-dihydro-1H-isoquinolin-2-yl)-ethyl]-phenylcarbamoyl}-phenyl)-amide] | 2270 nM
COc1cc2c(cc1OC)CN(CCc1ccc(NC(=O)c3ccccc3NC(=O)c3ccccc3C(F)(F)F)cc1)CC2 [compound 9523, 2-(2-Trifluoromethyl-benzoylamino)-N-{4-[2-(6,7-dimethoxy-3,4-dihydro-1H-isoquinolin-2-yl)-ethyl]-phenyl}-benzamide] | 1600 nM
COc1ccc(CN(C)CCc2ccc(NC(=O)c3ccc(C)cc3NC(=O)c3cnc4ccccc4c3)cc2)cc1OC [compound 9668] | 87 nM
COc1ccc(CN(C)CCc2ccc(NC(=O)c3cc(F)c(F)cc3NC(=O)c3cnc4ccccc4c3)cc2)cc1OC [compound 9667, Quinoline-3-carboxylic acid [2-(4-{2-[(3,4-dimethoxy-benzyl)-methyl-amino]-ethyl}-phenylcarbamoyl)-4,5-difiuoro-phenyl]-amide] | 76 nM
COc1cc2c(cc1OC)CN(CCNC(=O)c1ccccc1NC(=O)c1cnccn1)CC2 [compound 9391, Pyrazine-2-carboxylic acid {2-[2-(6,7-dimethoxy-3,4-dihydro-1H-isoquinolin-2-yl)-ethylcarbamoyl]-phenyl}-amide] | > 10000 nM
COc1cc(CCN2CCc3cc(OC)c(OC)cc3C2)ccc1NC(=O)c1ccccc1NC(=O)c1cnccn1 [compound 9659, Pyrazine-2-carboxylic acid (2-{4-[2-(6,7-dimethoxy-3,4-dihydro-1H-isoquinolin-2-yl)-ethyl]-2-methoxy-phenylcarbamoyl}-phenyl)-amide] | 1380 nM
COc1cc2c(cc1OC)CN(CCc1ccc(NC(=O)c3ccccc3NC(=O)c3cccc(N(C)C)c3)cc1)CC2 [compound 9556, 2-(3-Dimethylamino-benzoylamino)-N-{4-[2-(6,7-dimethoxy-3,4-dihydro-1H-isoquinolin-2-yl)-ethyl]-phenyl}-benzamide] | 860 nM
COc1cc2c(cc1OC)CN(CCNC(=O)c1cccc(Cl)c1NC(=O)c1ccc(C(C)C)cc1)CC2 [compound 9401, 2-(4-Isopropyl-benzoylamino)-N-[2-(6,7-dimethoxy-3,dihydro-1H-isoquinolin-2-yl)-ethyl]-3-chioro-benzamide] | 3000 nM
COc1cc2c(cc1OC)CN(CCNC(=O)c1ccc(Cl)cc1NC(=O)c1ccc(C(C)C)cc1)CC2 [compound 9350, 2-(4-Isopropyl-benzoylamino)-N-[2-(6,7-dimethoxy-3,4-dihydro-1H-isoquinolin-2-yl)-ethyl]-4-chioro-benzamide] | 800 nM
COc1cc2c(cc1OC)CN(CCc1ccc(NC(=O)c3ccccc3NC(=O)c3cnccn3)c(C)c1)CC2 [compound 9658, Pyrazine-2-carboxylic acid (2-{4-[2-(6,7-dimethoxy-3,4-dihydro-1H-isoquinolin-2-yl)-ethyl]2-methyl-phenylcarbamoyl}-phenyl)-amide] | 2900 nM
COc1cc2c(cc1OC)CN(CCc1ccc(NC(=O)c3c(C)cccc3NC(=O)c3ccccc3)cc1)CC2 [compound 9512, 2-Benzoylamino-N-{4-[2-(617-dimethoxy-3,4-dihydro-1H-isoquinolin-2-yl)-ethyl]-phenyl}-6-methyl-benzamide] | 3900 nM
COc1cc(CCN2CCc3cc(OC)c(OC)cc3C2)ccc1NC(=O)c1ccccc1NC(=O)c1cnc(C)cn1 [compound 9657, 5-Methyl-pyrazine-2-carboxylic acid (2-{4-[2-(6,7-dimethoxy-3,4-dihydro-1H-isoquinolin-2-yl)-ethyl]-2-methoxy-phenylcarbamoyl}-phenyl)-amide] | 343 nM
COc1ccc(CN(CCc2ccc(NC(=O)c3ccccc3NC(=O)c3cnc4ccccc4c3)cc2)C(C)C)cc1OC [compound 9669, Quinoline-3-carboxylic acid [2-(4-{2-[(3,4-dimethoxy-benzyl)-isopropyl-amino]-ethyl}-phenylcarbamoyl)-phenyl]-amide] | 469 nM
CCCCOc1cc(CN(C)CCc2ccc(NC(=O)c3cc(OC)c(OC)cc3NC(=O)c3cnc4ccccc4c3)cc2)ccc1OC [compound 9656, Quinoline-3-carboxylic acid [2-(4-{2-[(3-butoxy-4-methoxy-benzyl)-methyl-amino]-ethyl}-phenylcarbamoyl)-4,5-dimethoxy-phenyl]-amide] | 188 nM
COc1cc2c(cc1OC)CN(CCc1ccc(NC(=O)c3ccccc3NC(=O)c3ccc(F)cc3F)cc1)CC2 [compound 9513, 2-(2,4-Difluoro-benzoylamino)-N-{4-[2-(6,7-dimethoxy-3,4-dihydro-1H-isoquinolin-2-yl)-ethyl]-phenyl}-benzamide] | 200 nM
COc1cc2c(cc1OC)CN(CCNC(=O)c1cc3ccccc3cc1NC(=O)c1ccc(C(C)C)cc1)CC2 [compound 9410, 3-(4-Isopropyl-benzoylamino)-naphthalene-2-carboxylic acid [2-(6,7-dimethoxy-3,4-dihydro-1H-isoquinolin-2-yl)-ethyl]-amide] | 3000 nM
COc1cc2c(cc1OC)CN(CC(C)c1ccc(NC(=O)c3ccccc3NC(=O)c3cnc4ccccc4c3)cc1)CC2 (stereo not drawn) [compound 9654, Quinoline-3-carboxylic acid (2-{4-[2-(6,7-dimethoxy-3,4-dihydro-1H-isoquinolin-2-yl)-1-methyl-ethyl]-phenylcarbamoyl}-phenyl)-amide] | 135 nM
COc1cc2c(cc1OC)CN(CCc1ccc(NC(=O)c3ccccc3NC(=O)c3cc4ccccc4[nH]3)cc1)CC2 [compound 9515, 1H-Indole-2-carboxylic acid (2-{4-[2-(6,7-dimethoxy-3,4-dihydro-1H-isoquinolin-2-yl)-ethyl}-phenylcarbamoyl}-phenyl)-amide] | 1200 nM
COc1cc2c(cc1OC)CN(CCc1ccc(NC(=O)c3ccccc3NC(=O)c3cccc(C(F)(F)F)c3)cc1)CC2 [compound 9524] | 1000 nM
COc1cc2c(cc1OC)CN(CCc1ccc(NC(=O)c3ccccc3NC(=O)c3cnc4cc(C(F)(F)F)ccc4c3O)cc1)CC2 [compound 9592, 4-Hydroxy-7-trifluoromethyl-quinoline-3-carboxylic acid (2-{4-[2-(6,7-dimethoxy-3,4-dihydro-1H-isoquinolin-2-yl)-ethyl]-phenylcarbamoyl}-phenyl)-amide] | > 10000 nM
COc1cc2c(cc1OC)CN(CCc1cccc(NC(=O)c3ccccc3NC(=O)c3cnc(C)cn3)c1)CC2 [compound 9653, 5-Methyl-pyrazine-2-carboxylic acid (2-{3-[2-(6,7-dimethoxy-3,4-dihydro-1H-isoquinolin-2-yl)-ethyl]-phenylcarbamoyl}-phenyl)-amide] | 490 nM
COc1cc2c(cc1OC)CN(CCOc1ccc(NC(=O)c3ccccc3NC(=O)c3cnc4ccccc4c3)cc1)CC2 [compound 9623, Quinoline-3-carboxylic acid (2-{4-[2-(6,7-dimethoxy-3,4-dihydro-1H-isoquinolin-2-yl)-ethoxy]-phenylcarbamoyl}-phenyl)-amide] | 1890 nM
COc1cc2c(cc1OC)CN(CCc1ccc(NC(=O)c3ccccc3NC(=O)c3ccoc3)cc1)CC2 [compound 9526, Furan-3-carboxylic acid (2-{4-[2-(6,7-dimethoxy-3,4-dihydro-1H-isoquinolin-2-yl)-ethyl]-phenylcarbamoyl}-phenyl)-amide] | 1400 nM
COc1cc2c(cc1OC)CN(CCc1ccc(NC(=O)c3ccccc3NC(=O)c3cnc4ccccc4c3O)cc1)CC2 [compound 9606, 4-Hydroxy-quinoline-3-carboxylic acid (2-{4-[2-(6,7-dimethoxy-3,4-dihydro-1H-isoquinolin-2-yl)-ethyl]-phenylcarbamoyl}-phenyl)-amide] | > 10000 nM
